Experimental data from US20240181125A1, “COMPOSITIONS AND METHODS FOR SCARLESS WOUND HEALING IN DIABETES” (Washington University, priority 2022, published 2024).
Entries after “also recorded” stand apart in the source; their conditions may differ. Bridge positions count the residues as written; N and C are the ends. Peptide text beside a SMILES is read from it. * marks the point of attachment. FITC = O=C1OC2(c3ccc(O)cc3Oc3cc(O)ccc32)c2ccc(NC(=S)*)cc21

Columns and labels:
HaCaTs = assay: 2D scratch migration assay, HaCaT; type: cell-based, human; details: high glucose and TGFβ1, 48 hours
Experimental: (§1) HDFs, HaCaTs, and HAECs were cultured in 6-well plates using serum-free high glucose (4.5 g/L) basal medium with 1% P/S. After the cells reached confluency, a 200-μL pipet tip was used to scrape the cell monolayer. Then 3 mL of medium containing TGFβ1 (10 ng/ml) or TGFβ1 (10 ng/ml)/PTβR2I (10 μg/mL) was added to the wells. The cells were imaged at predetermined time points using a bright-field microscope. The distances between the scratch walls were measured using ImageJ to calculate the migration ratio

HDFs = assay: 2D scratch migration assay, HDF; type: cell-based, human; details: high glucose and TGFβ1, 72 hours
Experimental: as §1

TβR2 on the HDFs = molecular target: T1, TβR2 on the HDFs (Homo sapiens, UniProt P37173); assay: Bioactivity of released PTβR2I (cell binding assay on HDFs); type: cell-based; details: released on days 3, 8, 14; loadings 10, 20, 50 μg/mL
T1 construct: host or cells: human dermal fibroblasts (HDFs)
Experimental: Wound dressings were fabricated by encapsulating PTβR2I in the hydrogel solution at 4° C. Briefly, PTβR2I solution was mixed with 6 wt. % hydrogel solution to reach final PTβR2I concentrations of 10 μg/mL, 20 μg/mL and 50 μg/mL. The mixtures were stirred at 4° C. for 12 hours. To determine PTβR2I release kinetics, the mixtures were first incubated at 37° C. to gel. After 1 hour, the supernatant was replaced by a release medium (DPBS with 1% P/S). The medium was then collected at pre-determined time points for 21 days, and a fresh release medium was added after each collection. The concentration of the released PTβR2I was determined by measuring the fluorescence intensity and calculating the corresponding concentration using a standard curve. The bioactivity of the released PTβR2I was evaluated by its ability to bind to the TβR2 on the HDFs. The collected released medium was added to the culture medium of HDFs that were seeded in a 96-well plate. After 2 hours of incubation, the cells were washed three times with DPBS, and the fluorescence intensity was measured using a microplate reader (excitation/emission=485/535 nm).

[1] = tested on: diabetic wounds of db/db mice; assay: Example 5 wound dressings on full-thickness excisional diabetic wounds; type: in vivo
Experimental: After three days post-wound assay on db/db mice, the wounded tissues were collected and lysed. The protein concentrations were quantified by Bradford assay. The samples were tested using a Proteome Profiler Mouse Angiogenesis Array kit (R&D Systems) and a Mouse Cytokine Array kit (R&D Systems). The intensities of the dots on the membranes in the kits were quantified using Image Lab software. Eight-week-old, female db/db mice were used. Carprofen tablets (1/4 tablet per mouse) were given orally 48 hours before surgery and continued for seven days after the surgery as an analgesic. One day before surgery, the blood glucose levels of the mice were tested with a glucometer to confirm they were above 300 mg/dL. The mice were anesthetized by isoflurane inhalation, and the dorsal surface was thoroughly shaved. Then a 5-mm diameter biopsy punch (VWR) was used to create two symmetric full-thickness wounds on the back of each mouse. Next, 100 μL of liquid wound dressing, with or without 50 μg/mL of PTβ[…], was applied topically to the wound sites. The mice were observed every other day, and digital photographs of the wounds, with a ruler at the side, were acquired by a digital camera. Wound sizes were calculated using Image J. For in vitro tests, protein lysates were collected from HDFs. Pre-cooled cell scrapers were used to detach the cells, and the cells were re-suspended in RIPA lysis buffer with the inhibitor cocktail. For in vivo tests, wound skin tissues were washed three times with pre-cooled DPBS, dissected into small pieces, and re-suspended in RIPA lysis buffer containing protease and phosphatase inhibitors. […] After centrifugation at 12,000 g for 20 min, the supernatants were collected, and protein concentrations were measured using a Bradford protein assay kit (Bio-rad). […] Immunoblots were then washed with PBST and detected with a WesternBright HRP substrate detection kit (Advansta). […] The epidermal thickness was calculated from the MTS images in the wounded region. […] Images were acquired by Olympus confocal microscope and analyzed using ImageJ.

T1 sequence (P37173 23-567): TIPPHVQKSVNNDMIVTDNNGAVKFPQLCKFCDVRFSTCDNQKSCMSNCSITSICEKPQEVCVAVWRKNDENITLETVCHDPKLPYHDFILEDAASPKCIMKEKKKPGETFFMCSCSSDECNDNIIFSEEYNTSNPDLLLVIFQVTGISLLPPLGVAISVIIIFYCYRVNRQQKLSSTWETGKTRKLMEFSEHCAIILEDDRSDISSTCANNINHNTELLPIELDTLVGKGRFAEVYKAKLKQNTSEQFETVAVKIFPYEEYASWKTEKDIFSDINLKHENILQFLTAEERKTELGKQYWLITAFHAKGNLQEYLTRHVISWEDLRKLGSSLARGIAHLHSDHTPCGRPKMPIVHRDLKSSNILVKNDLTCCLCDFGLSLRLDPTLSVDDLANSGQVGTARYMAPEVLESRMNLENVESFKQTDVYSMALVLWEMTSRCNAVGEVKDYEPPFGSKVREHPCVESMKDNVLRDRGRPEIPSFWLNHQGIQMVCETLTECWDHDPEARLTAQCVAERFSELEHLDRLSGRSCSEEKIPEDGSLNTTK

bioactivity of released PTβR2I (TβR2 on the HDFs): remained bioactive
Compound: CC(C)C[C@@H]1NC(=O)CNC(=O)[C@@H](NC(=O)[C@@H](N)CCC(=O)O)CSSC[C@@H](C(=O)N[C@@H](CCCCNC(=S)Nc2ccc3c(c2)C(=O)OC32c3ccc(O)cc3Oc3cc(O)ccc32)C(=O)O)NC(=O)[C@H](CC(C)C)NC(=O)[C@H](CCCNC(=N)N)NC(=O)[C@H](Cc2c[nH]c3ccccc23)NC(=O)[C@H](C(C)C)NC(=O)[C@H](CCCNC(=N)N)NC(=O)[C@H](CC(=O)O)NC(=O)[C@@H]2CCCN2C(=O)[C@H](CCCNC(=N)N)NC(=O)CNC(=O)[C@H](C(C)C)NC(=O)[C@@H]2CCCN2C(=O)[C@H](CC(C)C)NC1=O [PTβR2I, ECGLLPVGRPDRVWRLCK-FITC] (H-ECGLLPVGRPDRVWRLCK(FITC)-OH; disulfide 2-17; N-terminus and C-terminus assumed)
migration (HaCaTs): significantly higher number of cells had migrated
migration (HDFs): significantly higher number of cells had migrated
expression of p-Smad2/3 in wounded skin ([1]; day 3): downregulated
expressions of p-Smad2/3 and α-SMA in wounded skin ([1]; day 8): without compromising
expression of p-p38 in wounded skin ([1]; days 3 and 8, vs Gel group): downregulated; also recorded: continued to downregulate
